From US20140005163A1 (NOVARTIS AG, priority 2010, published 2014)

Legend:
PI3K alpha = biological target: T1, PI3K alpha (Homo sapiens, UniProt P42336); experiment: PI3K alpha kinase assay (Kinase-Glo luminescence); format: biochemical
T1 construct: p85(iSH2) fusion partner (see partner chain) (N); His tag (C); made in house; host or cells: baculovirus; Tn5 (Trichoplusia ni) or TiniPro insect cells
How it was run: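 PI3Kα construct EMV B1075 (10 nM final) was preincubated with 10 μg/mL phosphatidylinositol in 10 mM Tris-HCl pH 7.5, 3 mM MgCl2, 50 mM NaCl, 0.05% CHAPS, 1 mM DTT. Reaction started with 1 μM ATP, 60 min at room temperature; remaining ATP measured by Kinase-Glo luminescence. IC50 from 4-parameter logistic fit of 8-point titrations.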

PI3K beta = biological target: T2, PI3K beta (Homo sapiens, UniProt P42338); experiment: PI3K beta kinase assay (Kinase-Glo luminescence); format: biochemical
T2 construct: for the full-length p110-b subunit are generated and fused by overlapping PCR; p85(iSH2) fusion partner (see partner chain) (N); His tag (C); made in house; host or cells: baculovirus; Tn5 (Trichoplusia ni) or TiniPro insect cells
T2 sequence (P42338 with tags, fused parts or gaps limits assumed): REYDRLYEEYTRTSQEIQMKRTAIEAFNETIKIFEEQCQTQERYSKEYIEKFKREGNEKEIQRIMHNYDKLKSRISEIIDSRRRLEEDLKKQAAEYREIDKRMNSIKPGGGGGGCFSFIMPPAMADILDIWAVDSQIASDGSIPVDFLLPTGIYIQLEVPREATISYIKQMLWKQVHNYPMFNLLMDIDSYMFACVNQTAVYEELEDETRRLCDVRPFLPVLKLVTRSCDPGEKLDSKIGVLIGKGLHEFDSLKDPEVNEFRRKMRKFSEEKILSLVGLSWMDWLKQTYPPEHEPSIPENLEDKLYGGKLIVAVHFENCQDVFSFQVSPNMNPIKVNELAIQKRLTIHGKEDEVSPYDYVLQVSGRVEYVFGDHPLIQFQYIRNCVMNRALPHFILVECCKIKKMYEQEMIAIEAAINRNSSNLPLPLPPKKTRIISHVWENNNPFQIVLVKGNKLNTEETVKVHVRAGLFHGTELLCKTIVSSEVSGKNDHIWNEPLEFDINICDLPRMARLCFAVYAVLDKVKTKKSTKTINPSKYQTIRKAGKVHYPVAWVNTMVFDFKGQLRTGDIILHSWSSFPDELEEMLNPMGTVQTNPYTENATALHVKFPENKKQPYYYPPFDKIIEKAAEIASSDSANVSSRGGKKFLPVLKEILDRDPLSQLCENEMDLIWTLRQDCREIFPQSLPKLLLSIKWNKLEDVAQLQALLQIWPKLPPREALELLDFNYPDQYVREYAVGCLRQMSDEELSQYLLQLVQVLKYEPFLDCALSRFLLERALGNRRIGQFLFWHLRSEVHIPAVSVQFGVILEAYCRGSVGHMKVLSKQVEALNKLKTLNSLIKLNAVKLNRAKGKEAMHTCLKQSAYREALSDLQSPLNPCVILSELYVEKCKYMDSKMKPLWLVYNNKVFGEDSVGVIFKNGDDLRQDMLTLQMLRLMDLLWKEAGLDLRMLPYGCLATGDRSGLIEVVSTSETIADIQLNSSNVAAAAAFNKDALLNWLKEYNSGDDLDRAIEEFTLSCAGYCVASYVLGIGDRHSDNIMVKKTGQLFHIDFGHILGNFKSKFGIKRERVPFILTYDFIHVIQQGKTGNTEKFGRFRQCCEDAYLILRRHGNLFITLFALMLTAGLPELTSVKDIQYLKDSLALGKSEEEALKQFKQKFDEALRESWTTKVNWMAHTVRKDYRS
How it was run: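 p110β full-length/p85 iSH2 construct (BV-949), 25 nM, with 1 μM ATP and 10 μg/mL phosphatidylinositol in 10 mM Tris pH 7.5, 3 mM MgCl2, 50 mM NaCl, 0.05% CHAPS, 1 mM DTT. 60 min at room temperature; ATP remaining read by Kinase-Glo luminescence. IC50 from 8-point four-parameter logistic fit.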

mTOR = biological target: T3, mTOR (Homo sapiens, UniProt P42345); experiment: Biochemical assay for m-TOR by TR-FRET; details: 8 μM ATP, 400 nM GFP-4EBP1, 0.5 nM mTOR
T3 construct: purchased Invitrogen Corporation (Carlsbad/CA, USA) PV4753
T3 sequence (P42345 1360-2549 limits assumed): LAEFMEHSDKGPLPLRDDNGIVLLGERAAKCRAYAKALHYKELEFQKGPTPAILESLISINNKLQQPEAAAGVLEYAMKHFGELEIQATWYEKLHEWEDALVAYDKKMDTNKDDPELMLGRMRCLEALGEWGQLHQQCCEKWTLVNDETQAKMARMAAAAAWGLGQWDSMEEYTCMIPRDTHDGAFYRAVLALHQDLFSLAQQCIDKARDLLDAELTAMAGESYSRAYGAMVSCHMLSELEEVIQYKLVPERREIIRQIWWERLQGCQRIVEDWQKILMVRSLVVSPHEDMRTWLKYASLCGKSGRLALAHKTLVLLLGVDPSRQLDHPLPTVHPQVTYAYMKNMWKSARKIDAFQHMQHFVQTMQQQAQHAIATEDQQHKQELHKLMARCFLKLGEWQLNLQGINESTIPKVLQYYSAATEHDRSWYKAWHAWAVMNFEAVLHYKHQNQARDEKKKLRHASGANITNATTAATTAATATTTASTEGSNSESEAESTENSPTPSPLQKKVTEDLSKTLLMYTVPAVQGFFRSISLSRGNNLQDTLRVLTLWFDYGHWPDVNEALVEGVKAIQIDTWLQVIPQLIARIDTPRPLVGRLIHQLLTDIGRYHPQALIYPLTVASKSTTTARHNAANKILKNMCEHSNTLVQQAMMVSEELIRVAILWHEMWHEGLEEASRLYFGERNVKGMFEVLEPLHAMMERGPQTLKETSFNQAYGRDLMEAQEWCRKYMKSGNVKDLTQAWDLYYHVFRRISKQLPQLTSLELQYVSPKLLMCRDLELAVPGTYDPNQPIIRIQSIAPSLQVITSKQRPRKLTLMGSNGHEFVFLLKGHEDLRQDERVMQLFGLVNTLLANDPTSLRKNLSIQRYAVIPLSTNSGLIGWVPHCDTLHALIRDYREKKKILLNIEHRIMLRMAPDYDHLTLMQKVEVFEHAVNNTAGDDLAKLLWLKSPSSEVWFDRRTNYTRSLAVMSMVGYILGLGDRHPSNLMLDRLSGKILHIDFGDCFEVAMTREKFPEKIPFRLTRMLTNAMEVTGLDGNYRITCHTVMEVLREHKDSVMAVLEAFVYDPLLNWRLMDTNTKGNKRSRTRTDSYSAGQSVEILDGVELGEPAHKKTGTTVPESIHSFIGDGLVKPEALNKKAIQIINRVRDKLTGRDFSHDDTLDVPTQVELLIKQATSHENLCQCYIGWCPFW
How it was run: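 mTOR (0.5 nM) was incubated at rt with ATP (8 μM final) and GFP-4EBP1 (400 nM final) in 50 mM HEPES pH 7.5, 10 mM MnCl2, 50 mM NaCl, 1 mM EGTA, 1 mM DTT. EDTA stop with Tb3+-anti-p4EBP1 [pThr46] antibody (0.5 nM); TR-FRET read 15 min later.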

T1 sequence (P42336 with tags, fused parts or gaps limits assumed): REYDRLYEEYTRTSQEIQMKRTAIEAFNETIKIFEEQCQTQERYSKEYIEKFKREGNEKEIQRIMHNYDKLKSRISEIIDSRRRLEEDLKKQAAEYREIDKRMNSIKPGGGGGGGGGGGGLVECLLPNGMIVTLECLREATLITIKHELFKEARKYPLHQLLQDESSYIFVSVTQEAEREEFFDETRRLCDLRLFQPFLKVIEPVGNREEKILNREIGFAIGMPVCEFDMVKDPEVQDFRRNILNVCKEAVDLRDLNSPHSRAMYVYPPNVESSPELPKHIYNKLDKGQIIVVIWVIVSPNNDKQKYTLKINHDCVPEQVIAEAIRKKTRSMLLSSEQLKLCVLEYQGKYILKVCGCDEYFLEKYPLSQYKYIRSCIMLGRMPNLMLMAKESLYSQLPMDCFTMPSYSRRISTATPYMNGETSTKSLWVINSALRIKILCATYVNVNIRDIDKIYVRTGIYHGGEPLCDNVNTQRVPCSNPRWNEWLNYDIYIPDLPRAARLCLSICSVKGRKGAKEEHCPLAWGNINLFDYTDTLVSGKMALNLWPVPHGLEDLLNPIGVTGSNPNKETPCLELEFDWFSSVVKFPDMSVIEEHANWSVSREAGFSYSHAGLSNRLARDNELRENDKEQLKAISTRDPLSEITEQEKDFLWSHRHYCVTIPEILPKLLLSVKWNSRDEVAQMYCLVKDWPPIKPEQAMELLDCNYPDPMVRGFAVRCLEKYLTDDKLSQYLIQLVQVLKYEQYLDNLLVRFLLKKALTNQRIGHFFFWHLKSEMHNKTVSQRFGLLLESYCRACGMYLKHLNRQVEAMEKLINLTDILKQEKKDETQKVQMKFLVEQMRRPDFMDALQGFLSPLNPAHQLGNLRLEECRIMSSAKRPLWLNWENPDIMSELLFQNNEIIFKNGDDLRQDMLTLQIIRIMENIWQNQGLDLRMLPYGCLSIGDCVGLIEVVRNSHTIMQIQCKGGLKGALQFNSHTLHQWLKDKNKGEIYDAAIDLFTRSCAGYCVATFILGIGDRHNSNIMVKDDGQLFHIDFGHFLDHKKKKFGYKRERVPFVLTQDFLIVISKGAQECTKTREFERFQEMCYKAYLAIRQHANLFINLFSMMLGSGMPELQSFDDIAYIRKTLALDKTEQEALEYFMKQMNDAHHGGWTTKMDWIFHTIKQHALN

SMILES	IC50 (PI3K alpha) [nM]	IC50 (PI3K beta) [nM]	IC50 (mTOR) [nM]
COc1ccc(-c2ccc3ncc4c(c3c2)n(-c2cc(C)nn2C)c(=O)n4C)cc1OC [Example 1.4, 8-(3,4-Dimethoxy-phenyl)-1-(2,5-dimethyl-2H-pyrazol-3-yl)-3-methyl-1,3-dihydro-imidazo[4,5-c]quinolin-2-one]	39	378	87
COc1ccc(-c2ccc3ncc4c(c3c2)n(-c2cn(C(C)C)nc2C)c(=O)n4C)cc1OC [Example 1.5, 8-(3,4-Dimethoxy-phenyl)-1-(1-isopropyl-3-methyl-1H-pyrazol-4-yl)-3-methyl-1,3-dihydro-imidazo[4,5-c]quinolin-2-one]	10	101	61
CCn1cc(-n2c(=O)n(C)c3cnc4ccc(-c5ccc(OC)c(OC)c5)cc4c32)c(C)n1 [Example 1.6, 8-(3,4-Dimethoxy-phenyl)-1-(1-ethyl-3-methyl-1H-pyrazol-4-yl)-3-methyl-1,3-dihydro-imidazo[4,5-c]quinolin-2-one]	8	43	10
COc1ccc(-c2ccc3ncc4c(c3c2)n(-c2cn(C)nc2C)c(=O)n4C)cn1 [Example 2.5, 1-(1,3-Dimethyl-1H-pyrazol-4-yl)-8-(6-methoxy-pyridin-3-yl)-3-methyl-1,3-dihydro-imidazo[4,5-c]quinolin-2-one]	17	86	9
CCn1cc(-n2c(=O)n(C)c3cnc4ccc(-c5ccc(OC)nc5)cc4c32)c(C)n1 [Example 2.7, 1-(1-Ethyl-3-methyl-1H-pyrazol-4-yl)-8-(6-methoxy-pyridin-3-yl)-3-methyl-1,3-dihydro-imidazo[4,5-c]quinolin-2-one]	24	91	13
CCOc1ccc(-c2ccc3ncc4c(c3c2)n(-c2c(C)nn(C)c2C)c(=O)n4C)cn1 [Example 3.3, 8-(6-Ethoxy-pyridin-3-yl)-3-methyl-1-(1,3,5-trimethyl-1H-pyrazol-4-yl)-1,3-dihydro-imidazo[4,5-c]quinolin-2-one]	146	401	651
CCOc1ccc(-c2ccc3ncc4c(c3c2)n(-c2cn(C(C)C)nc2C)c(=O)n4C)cn1 [Example 3.7, 8-(6-Ethoxy-pyridin-3-yl)-1-(1-isopropyl-3-methyl-1H-pyrazol-4-yl)-3-methyl-1,3-dihydro-imidazo[4,5-c]quinolin-2-one]	61	537	23
CCOc1ccc(-c2ccc3ncc4c(c3c2)n(-c2cn(CC(=O)N(C)C)nc2C)c(=O)n4C)cn1 [Example 3.9, 2-{4-[8-(6-Ethoxy-pyridin-3-yl)-3-methyl-2-oxo-2,3-dihydro-imidazo[4,5-c]quinolin-1-yl]-3-methyl-pyrazol-1-yl}-N,N-dimethyl-acetamide]	21		11
Cc1nn(C)cc1-n1c(=O)n(C)c2cnc3ccc(-c4ccc(N(C)C)nc4)cc3c21 [Example 4.5, 8-(6-Dimethylamino-pyridin-3-yl)-1-(1,3-dimethyl-1H-pyrazol-4-yl)-3-methyl-1,3-dihydro-imidazo[4,5-c]quinolin-2-one]	23	213	22
Cc1cc(-n2c(=O)n(C)c3cnc4ccc(-c5ccc(N(C)C)nc5)cc4c32)n(C)n1 [Example 4.6, 8-(6-Dimethylamino-pyridin-3-yl)-1-(2,5-dimethyl-2H-pyrazol-3-yl)-3-methyl-1,3-dihydro-imidazo[4,5-c]quinolin-2-one]	48	336	42
Cc1nn(C)cc1-n1c(=O)n(C)c2cnc3ccc(-c4ccc(N5CCC5)nc4)cc3c21 [Example 5.1, 8-(6-Azetidin-1-yl-pyridin-3-yl)-1-(1,3-dimethyl-1H-pyrazol-4-yl)-3-methyl-1,3-dihydro-imidazo[4,5-c]quinolin-2-one]	30	787	18
Cc1nn(C)cc1-n1c(=O)n(C)c2cnc3ccc(-c4ccc(C(N)=O)nc4)cc3c21 [Example 14, 5-[1-(1,3-Dimethyl-1H-pyrazol-4-yl)-3-methyl-2-oxo-2,3-dihydro-1H-imidazo[4,5-c]quinolin-8-yl]-pyridine-2-carboxylic acid amide]	18	130	6
CNC(=O)c1ccc(-c2ccc3ncc4c(c3c2)n(-c2c(C)nn(C)c2C)c(=O)n4C)cn1 [Example 15.2, 5-[3-Methyl-2-oxo-1-(1,3,5-trimethyl-1H-pyrazo1-4-yl)-2,3-dihydro-1H-imidazo[4,5-c]quinolin-8-yl]-pyridine-2-carboxylic acid methylamide]	249	988	335
Cc1nn(C)c(C)c1-n1c(=O)n(C)c2cnc3ccc(-c4ccc(CO)nc4)cc3c21 [Example 16.4, 8-(6-Hydroxymethyl-pyridin-3-yl)-3-methyl-1-(1,3,5-trimethyl-1H-pyrazol-4-yl)-1,3-dihydro-imidazo[4,5-c]quinolin-2-one]	184	515	666
Cn1cc(-n2c(=O)n(C)c3cnc4ccc(-c5ccc(CO)nc5)cc4c32)c(Cl)n1 [Example 16.5, 1-(3-chloro-1-methyl-1H-pyrazol-4-yl)-8-(6-hydroxymethyl-pyridin-3-yl)-3-methyl-1,3-dihydro-imidazo[4,5-c]quinolin-2-one]	3	28	6
Cn1nccc1-n1c(=O)n(C)c2cnc3ccc(-c4ccc(NCCO)nc4)cc3c21 [Example 21.1, 8-[6-(2-Hydroxy-ethylamino)-pyridin-3-yl]-3-methyl-1-(2-methyl-2H-pyrazol-3-yl)-1,3-dihydro-imidazo[4,5-c]quinolin-2-one]	272	946	201
Cc1cncc(-c2ccc3ncc4c(c3c2)n(-c2cn(C)nc2C)c(=O)n4C)c1 [Example 24, 1-(1,3-Dimethyl-1H-pyrazol-4-yl)-3-methyl-8-(5-methyl-pyridin-3-yl)-1,3-dihydro-imidazo[4,5-c]quinolin-2-one]	10	26	37
Cc1nn(C)cc1-n1c(=O)n(C)c2cnc3ccc(-c4ccc(-n5cccn5)cc4)cc3c21 [Example 51.1, 1-(1,3-Dimethyl-1H-pyrazol-4-yl)-3-methyl-8-(4-pyrazol-1-yl-phenyl)-1,3-dihydro-imidazo[4,5-c]quinolin-2-one]	23		11
CCOc1ncc(-c2ccc3ncc4c(c3c2)n(-c2cn(C)nc2C)c(=O)n4C)cc1NC(C)=O [Example 65, N-{5-[1-(1,3-Dimethyl-1H-pyrazol-4-yl)-3-methyl-2-oxo-2,3-dihydro-1H-imidazo[4,5-c]quinolin-8-yl]-2-ethoxy-pyridin-3-yl}-acetamide]	460		58
Cc1nn(C)cc1-n1c(=O)n(C)c2cnc3ccc(-c4ccc(OCCCO)nc4)cc3c21 [Example 108, 1-(1,3-Dimethyl-1H-pyrazol-4-yl)-8-[6-(3-hydroxy-propoxy)-pyridin-3-yl]-3-methyl-1,3-dihydro-imidazo[4,5-c]quinolin-2-one]	132		60
CCOCc1ncc(-c2ccc3ncc4c(c3c2)n(-c2cn(C)nc2C)c(=O)n4C)cc1OC [Example 196.2, 1-(1,3-Dimethyl-1H-pyrazol-4-yl)-8-(6-ethoxymethyl-5-methoxy-pyridin-3-yl)-3-methyl-1,3-dihydro-imidazo[4,5-c]quinolin-2-one]	175		193
CCNc1ncc(-c2ccc3ncc4c(c3c2)n(-c2c(C)nn(C)c2C)c(=O)n4C)cc1COC [Example 206.2, 8-(6-Ethylamino-5-methoxymethyl-pyridin-3-yl)-3-methyl-1-(1,3,5-trimethyl-1H-pyrazol-4-yl)-1,3-dihydro-imidazo[4,5-c]quinolin-2-one]	186	432	
CO[C@@H]1CCN(c2ccc(-c3ccc4ncc5c(c4c3)n(-c3cn(C)nc3C)c(=O)n5C)cn2)C1 [Example 213.1, 1-(1,3-Dimethyl-1H-pyrazol-4-yl)-8-[6-((R)-3-methoxy-pyrrolidin-1-yl)-pyridin-3-yl]-3-methyl-1,3-dihydro-imidazo[4,5-c]quinolin-2-one]	462		373
Cc1nn(CC(=O)N2CCC2)cc1-n1c(=O)n(C)c2cnc3ccc(-c4cnc(N5CCCC5)nc4)cc3c21 [Example 247.2, 1-[1-(2-Azetidin-1-yl-2-oxo-ethyl)-3-methyl-1H-pyrazol-4-yl]-3-methyl-8-(2-pyrrolidin-1-yl-pyrimidin-5-yl)-1,3-dihydro-imidazo[4,5-c]quinolin-2-one]	38		12
